Source: patent US10155754B2, “Substituted 2-imino-1,3-thiazolidin-4-ones as N-arachidonoylethanolamine cellular uptake inhibitors” (UNIVERSITAT BERN, priority 2014, dated 2018)

What was measured:
[1] = test system: AEA cellular uptake (U937 cells); assay: [3H]-AEA cellular uptake inhibition in U937 cells; assay type: cell-based; conditions: Homo sapiens, U-937, U937 cells, final 100 nM AEA with 0.5 nM [3H]-AEA, 15 min at 37° C.; read-out: AEA uptake IC50
Summary of the method: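 U937 cells (0.5×10^6 per sample) pre-incubated with compound (100 pM–100 μM, triplicates) for 15 min at 37 °C, then given 100 nM AEA including 0.5 nM [3H]-AEA for 15 min. Filtration, washing and scintillation counting of cell-associated radioactivity; IC50 by four-parameter nonlinear regression.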

FAAH = biological target: T1, FAAH (Homo sapiens, UniProt O00519); assay: FAAH activity: hydrolysis of [3H]-AEA in U937 cell homogenates; assay type: biochemical; conditions: [3H]-AEA hydrolysis, final 100 nM AEA, read-out: FAAH inhibition IC50
T1 construct: endogenous in cells; host or cells: U937 cell homogenate
T1 sequence (O00519 1-579): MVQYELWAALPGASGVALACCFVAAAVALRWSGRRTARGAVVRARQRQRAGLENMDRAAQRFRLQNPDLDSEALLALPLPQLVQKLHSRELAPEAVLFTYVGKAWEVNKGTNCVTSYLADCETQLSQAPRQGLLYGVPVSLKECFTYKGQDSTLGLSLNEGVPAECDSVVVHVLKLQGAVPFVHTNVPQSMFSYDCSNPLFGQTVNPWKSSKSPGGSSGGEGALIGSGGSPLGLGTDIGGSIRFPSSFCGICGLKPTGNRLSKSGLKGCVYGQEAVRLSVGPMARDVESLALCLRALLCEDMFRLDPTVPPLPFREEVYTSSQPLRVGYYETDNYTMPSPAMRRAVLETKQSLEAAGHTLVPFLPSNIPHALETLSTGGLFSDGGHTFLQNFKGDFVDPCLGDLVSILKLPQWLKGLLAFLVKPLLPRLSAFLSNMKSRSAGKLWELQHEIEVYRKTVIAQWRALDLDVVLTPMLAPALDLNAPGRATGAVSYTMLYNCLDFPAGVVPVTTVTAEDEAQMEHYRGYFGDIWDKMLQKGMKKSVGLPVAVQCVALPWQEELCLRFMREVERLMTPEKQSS
Description: Hydrolysis of [^3H]-AEA by FAAH was determined as previously described in cell homogenates of U937 cells (0.18 mg protein) (Omeir et al., 1999, Biochem Biophys Res Commun, 264, 316-20; Mor et al., 2004, J Med Chem, 47, 4998-5008). Protein amounts of cell homogenates corresponded to 0.5×10^6 cells (U937), to assure best possible comparability of IC50 values as used for the AEA cellular uptake assays. URB597 was used as positive control. Protein quantification was performed using a BCA assay (Thermo Scientific). Enzyme activity was assessed by addition of vehicle or compounds in 10 μL DMSO to 490 μL homogenate in 10 mM Tris HCl, 1 mM EDTA, 0.1% (w/v) BSA fatty acid free, pH=8 and incubation for 15 min at 37° C. After, a mixture of AEA plus [ethanolamine-1-^3H]-AEA (0.5 nM) at final 100 nM was added to the homogenates and incubated for 15 min at 37° C. The reaction was stopped by addition of 1 mL ice-cold CHCl3:MeOH (1:1) followed by vigorous vortexing. Phase separation was achieved by centrifugation at 10'000×g at 4° C. for 10 min. Radioactivity of the separated aqueous phase (upper phase) containing [^3H-ethanolamine] or [^3H-glycerol] was measured by liquid scintillation counting on a Tri-Carb 2100 TR liquid scintillation analyzer after addition of 3.5 mL Ultima Gold scintillation cocktail (PerkinElmer Life Sciences). Results are expressed as hydrolysis of tritium substrate in percent of vehicle treated control. IC50 values were calculated by GraphPad®. Data are reported as means of n=3 independent experiments performed in triplicates.

IC50 [1]: 51 nM
IC50 (FAAH): 617 nM
Structure (SMILES): O=C1/C(=C/c2ccc3c(c2)OCCO3)S/C(=N\Cc2ccc(F)cc2)N1c1ccc(Cl)cc1 [24_P_L, (2Z,5Z)-2-(4-fluorobenzylimino)-3-(4-chlorophenyl)-5-((2,3-dihydrobenzo[b][1,4]dioxin-6-yl)methylene)thiazolidin-4-one]
